What was measured:
[1] = tested on: AeOctR (Aedes octopamine receptor), cloned α-like OctR; experiment: OctR activation: change in intracellular calcium (CALCIUM 6QR dye, FlexStation 3) in stably transfected mammalian cells; format: cell-based, Aedes aegypti; conditions: agonist
Source text: (§1) Functional expression of cloned arthropod OctRs and human α2-ARs: The cDNAs for α-like OctRs from different arthropod species (e.g., Anopheles gambiae, Aedes aegypti, Periplaneta americana, Drosophila melanogaster, Ixodes scapularis, Balanus improvises) and for α2-AR subtypes from humans were individually subcloned into mammalian expression vectors. These plasmids, which harbor a resistance gene for the selection drug G418 and the cDNA sequence for the receptor of interest, were individually transfected into mammalian cells using a calcium phosphate precipitation method. G418 selection was then employed to generated stable clonal cell lines. Utilizing rapid filtration radioligand binding techniques, the cell surface density of receptor expression of the individual clonal cell lines was determined at equilibrium and those with similar high levels of expression were selected for further experiments. Briefly, binding conditions were 50 mM Tris binding buffer pH 7.4 at 25° C. and an ice-cold wash buffer 10 mM Tris-HCl, pH 7.4). The radioligand was [3H]rauwolscine and non-specific binding was determined in the presence of 10 μM atipamezole. Following the addition of membranes prepared from the clonal cell lines, samples were mixed and allowed 2 hr. to reach equilibrium before rapid filtration and washing through 0.3% PEI-treated GF/C filters. The radioactivity remaining on the filters was quantified by scintillation counting. Receptor density (Bmax) was back calculated knowing the specific activity of the radioligand and applying the equation for a square hyperbola model: Bmax=(Y·(KD+X))/X, where Y is [specifically bound radioligand] and X=[radio ligand concentration]. The affinity (KD) for the radioligand for each receptor was determined in separate saturation isotherm binding experiments using the same binding conditions as describe above.
(§2) Measurement of OctR activation by measuring changes in intracellular calcium: Activation of arthropod α-like OctRs increases intracellular calcium via a Gq-coupling mechanism. This involves activation of phospholipase C leading to an increase in intracellular inositol triphosphate (IP3) which then activates IP3-gated calcium channels in the endoplasmic reticulum causing a transient rise in intracellular calcium. These changes in intracellular calcium upon OctR activation were measured by loading cells with intracellular calcium sensitive dye CALCIUM 6QR and reading the change in calcium-induced fluorescent signal over time on a FlexStation 3 microplate reader.

[2] = tested on: Balanus OctR (BiOctR); experiment: OctR activation, change in intracellular calcium; format: cell-based, Balanus improvises; conditions: Balanus barnacle OctR over Homo sapien α2-AR subtypes
Source text: as §1, with “Briefly, binding conditions were 50 mM Tris binding buffer pH 7.4 at 25° C. and an ice-cold wash buffer 10 mM Tris-HCl, pH 7.4).” left out, “Following the addition of membranes prepared from the clonal cell lines, samples were mixed and allowed 2 hr. to reach equilibrium before rapid filtration and washing through 0.3% PEI-treated GF/C filters.” left out, “The affinity (KD) for the radioligand for each receptor was determined in separate saturation isotherm binding experiments using the same binding conditions as describe above.” left out

[3] = Volatility; format: physicochemical
[4] = molecular target: T1, PaOctR (Periplaneta octopamine receptor), cloned α-like OctR (Periplaneta americana, UniProt Q7YWB7); experiment: OctR activation: change in intracellular calcium (CALCIUM 6QR dye, FlexStation 3) in stably transfected mammalian cells; format: cell-based; conditions: agonist
T1 construct: Gq calcium readout
T1 sequence (Q7YWB7 1-628): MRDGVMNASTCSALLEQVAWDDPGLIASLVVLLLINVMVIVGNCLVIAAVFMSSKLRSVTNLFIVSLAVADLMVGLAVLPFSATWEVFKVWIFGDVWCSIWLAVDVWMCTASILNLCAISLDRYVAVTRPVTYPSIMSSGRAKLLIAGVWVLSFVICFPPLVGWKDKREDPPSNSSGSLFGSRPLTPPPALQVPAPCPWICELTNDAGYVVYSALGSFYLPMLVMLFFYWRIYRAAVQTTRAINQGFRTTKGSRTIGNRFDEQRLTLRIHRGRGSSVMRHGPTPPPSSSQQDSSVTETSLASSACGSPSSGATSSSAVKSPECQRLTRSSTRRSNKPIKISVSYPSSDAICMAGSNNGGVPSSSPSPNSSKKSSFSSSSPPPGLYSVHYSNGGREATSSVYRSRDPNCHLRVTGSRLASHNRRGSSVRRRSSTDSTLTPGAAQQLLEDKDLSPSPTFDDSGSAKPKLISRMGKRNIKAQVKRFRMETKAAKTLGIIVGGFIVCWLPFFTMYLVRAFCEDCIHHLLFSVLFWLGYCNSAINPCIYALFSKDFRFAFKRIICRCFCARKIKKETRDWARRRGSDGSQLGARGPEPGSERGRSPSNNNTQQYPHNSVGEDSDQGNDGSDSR
Source text: as §1, §2

[5] = molecular target: T2, DmOctR (Drosophila octopamine receptor), cloned α-like OctR (Drosophila melanogaster, UniProt Q7JQF1); experiment: as above; format: cell-based; conditions: agonist
T2 construct: Gq calcium readout
T2 sequence (Q7JQF1 1-645): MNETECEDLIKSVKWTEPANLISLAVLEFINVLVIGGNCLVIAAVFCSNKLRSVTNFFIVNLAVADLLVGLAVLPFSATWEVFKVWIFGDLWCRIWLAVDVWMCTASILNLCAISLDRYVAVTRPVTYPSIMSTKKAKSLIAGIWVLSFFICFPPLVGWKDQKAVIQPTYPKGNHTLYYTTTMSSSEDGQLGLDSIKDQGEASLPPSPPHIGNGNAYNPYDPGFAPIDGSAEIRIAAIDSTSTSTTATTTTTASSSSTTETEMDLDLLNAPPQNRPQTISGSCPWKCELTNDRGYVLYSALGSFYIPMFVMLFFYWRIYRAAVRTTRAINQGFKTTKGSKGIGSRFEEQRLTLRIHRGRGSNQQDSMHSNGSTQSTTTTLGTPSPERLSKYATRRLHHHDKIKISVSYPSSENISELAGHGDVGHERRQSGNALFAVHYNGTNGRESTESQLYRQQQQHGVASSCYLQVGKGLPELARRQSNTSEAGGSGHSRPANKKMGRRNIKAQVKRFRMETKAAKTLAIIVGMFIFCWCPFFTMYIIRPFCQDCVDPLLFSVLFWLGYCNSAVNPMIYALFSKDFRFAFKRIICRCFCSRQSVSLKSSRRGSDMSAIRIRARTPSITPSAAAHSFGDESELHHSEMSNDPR
Source text: as §1, §2

[6] = molecular target: T3, AgAOctR (Anopheles octopamine receptor isoform A), cloned α-like OctR (Anopheles gambiae, UniProt Q7PRZ8); experiment: as above; format: cell-based; conditions: agonist
T3 construct: Gq calcium readout
T3 sequence (Q7PRZ8 1-592): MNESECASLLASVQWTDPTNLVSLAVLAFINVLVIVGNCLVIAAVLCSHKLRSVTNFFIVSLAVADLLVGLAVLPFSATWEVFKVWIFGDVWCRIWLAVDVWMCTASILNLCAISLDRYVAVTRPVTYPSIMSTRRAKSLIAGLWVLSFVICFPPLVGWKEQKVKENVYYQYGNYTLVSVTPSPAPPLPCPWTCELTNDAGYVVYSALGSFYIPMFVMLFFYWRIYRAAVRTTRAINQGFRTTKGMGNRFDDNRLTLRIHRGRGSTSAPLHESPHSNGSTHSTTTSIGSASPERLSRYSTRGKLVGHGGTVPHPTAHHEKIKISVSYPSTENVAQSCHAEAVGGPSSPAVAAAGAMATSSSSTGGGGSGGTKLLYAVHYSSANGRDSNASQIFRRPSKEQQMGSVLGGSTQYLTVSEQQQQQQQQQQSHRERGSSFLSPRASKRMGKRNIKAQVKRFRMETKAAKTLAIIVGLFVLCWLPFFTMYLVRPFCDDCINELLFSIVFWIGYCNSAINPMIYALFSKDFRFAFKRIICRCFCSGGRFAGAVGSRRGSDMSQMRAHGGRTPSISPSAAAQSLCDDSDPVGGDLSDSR
Source text: as §1, §2

## C=C(c1cnc[nH]1)c1cccc(C)c1C [AZ0027]
[1]
  EC50: 12 ± 3.2 nM
[2]
  selectivity Ki(Hsα2-AR)/EC50(OctR): highly selective
[3]
  volatility: low volatility
[4]
  EC50: 0.44 ± 0.23 nM
[5]
  EC50: 8.7 ± 2.7 nM
[6]
  EC50: 0.013 ± 0.0046 nM
